Legend:
Assay type in all cases: biochemical
[1] = target: T1, κ opioid receptor (Homo sapiens (Human), UniProt P41145); test: κ-opioid receptor [35S]GTPγS functional assay (U-2 OS); settings: for Emax: U2OS, GTPγS, relative to U69,593
Procedure: (§1) Functional [^35S]GTPγS binding assays were conducted as follows. K opioid receptor membrane solution was prepared by sequentially adding final concentrations of 0.026 μg/μl membrane protein (in-house), 10 μg/mL saponin, 3 μM GDP and 0.20 nM [^35S]GTPγS to binding buffer (100 mM NaCl, 10 mM MgCl2, 20 mM HEPES, pH 7.4) on ice. The prepared membrane solution (190 μl/well) was transferred to 96-shallow well polypropylene plates containing 10 μl of 20× concentrated stock solutions of agonist prepared in DMSO. Plates were incubated for 30 min at a temperature of about 25° C. with shaking. Reactions were terminated by rapid filtration onto 96-well Unifilter GF/B filter plates (Perkin Elmer, Shelton, Conn.) using a 96-well tissue harvester (Packard) and followed by three filtration washes with 200 μl ice-cold binding buffer (10 mM NaH2PO4, 10 mM Na2HPO4, pH 7.4). Filter plates were subsequently dried at 50° C. for 2-3 hours. Fifty μl/well scintillation cocktail (Perkin Elmer, Shelton, Conn.) was added and plates were counted in a Packard Top-Count for 1 min/well.
(§2) GTP EC50 is the concentration of a compound providing 50% of the maximal response for the compound at a κ receptor.
(§3) κ GTP Emax (%) is the maximal effect elicited by a compound relative to the effect elicited by U69,593.
(§4) In TABLE 4, activity response of certain Compounds of the Invention to the μ- and κ-opioid receptors was determined as described above for functional assays using U-2 OS cells.

[2] = target: T2, μ-opioid receptor (Homo sapiens (Human), UniProt P35372); test: μ-opioid receptor [35S]GTPγS functional assay (HEK); settings: for Emax: relative to DAMGO
Procedure: (§5) [^35S]GTPγS functional assays were conducted using freshly thawed μ-receptor membranes prepared in-house from a cell line expressing recombinant μ opioid receptor in a HEK-293, CHO or U-2 OS cell background, or purchased from a commercial source (Perkin Elmer, Shelton, Conn.; or DiscovRx, Fremont, Calif.). Assay reactions were prepared by sequentially adding the following reagents to binding buffer (100 mM NaCl, 10 mM MgCl2, 20 mM HEPES, pH 7.4) on ice (final concentrations indicated): membrane protein (0.026 mg/mL), saponin ([…]), GDP ([…]) and [^35S]GTPγS (0.20 nM; Perkin Elmer, Shelton, Conn.). The prepared membrane solution (190 μl/well) was transferred to 96-shallow well polypropylene plates containing 10 μl of 20× concentrated stock solutions of the agonist [D-Ala^2, N-methyl-Phe^4 Gly-ol^5]-enkephalin (DAMGO) prepared in dimethyl sulfoxide (DMSO). Plates were incubated for […] at about 25° C. with shaking. Reactions were terminated by rapid filtration onto 96-well Unifilter GF/B filter plates (Perkin Elmer, Shelton, Conn.) using a 96-well tissue harvester (Perkin Elmer, Shelton, Conn.) followed by three filtration washes with 200 μl of ice-cold wash buffer (10 mM NaH2PO4, 10 mM Na2HPO4, pH 7.4). Filter plates were subsequently dried at 50° C. for 2-3 hours. BetaScint scintillation cocktail (Perkin Elmer, Shelton, Conn.) was added (50 μl/well) and plates were counted using a Packard Top-Count for 1 min/well. Data were analyzed using the sigmoidal dose-response curve fitting functions in GraphPad PRISM v. 3.0, or an in-house function for non-linear, sigmoidal dose-response curve-fitting.
(§6) μ GTP EC50 is the concentration of a compound providing 50% of the maximal response for the compound at a μ-opioid receptor.
(§7) μ GTP Emax (%) is the maximal effect elicited by a compound relative to the effect elicited by DAMGO, a standard agonist. Generally, the μ GTP Emax (%) value measures the efficacy of a compound to treat or prevent pain or other Conditions.
(§8) In TABLE 3, activity response of certain Compounds of the Invention to the μ- and κ-opioid receptors was determined as described above for functional assays using HEK cells.

[3] = target: T2, μ-opioid receptor; test: μ-opioid receptor [35S]GTPγS functional assay (U-2 OS); settings: for Emax: U2OS, GTPγS, relative to DAMGO
Procedure: as §5, §6, §7, §4

[4] = target: T1, κ opioid receptor; test: κ-opioid receptor [35S]GTPγS functional assay (HEK); settings: for Emax: HEK, GTPγS, relative to U69,593
Procedure: as §1, §2, §3, §8

| SMILES | EC50 [1] | Emax [1] | EC50 [2] | Emax ([2]; HEK, GTPγS) | EC50 [3] | Emax [3] | EC50 [4] | Emax [4] | EC50 ([2]; HEK, GTPγS, bound given in μM, read-out: μ EC50) |
| --- | --- | --- | --- | --- | --- | --- | --- | --- | --- |
| COc1ccc2c(c1)[C@]13CCN(C)[C@H](C2)[C@]1(O)CC1=CC(=O)N[C@H]1C3 [Compound 2, (6R,6aS,10aS,11aR)-6a-hydroxy-2-methoxy-14-methyl-5,6,6a,7,10a,11-hexahydro-6,11a-(epiminoethano)naphtho[2,1-f]indol-9(10H)-one] | > 20000 nM | 84.7 ± 2.73% | 12.3 ± 0.615 µM | 51.8 ± 0.39% | 738 ± 59 nM | 103.3 ± 0.67% |  |  |  |
| COc1ccc2c(c1)[C@]13CCN(C)[C@H](C2)[C@]1(O)C[C@H]1CC(=O)N[C@H]1C3 [Compound 3, (6R,6aS,7aS,10aS,11aR)-6a-hydroxy-2-methoxy-14-methyl-5,6,6a, 7,7a,8,10a,11-octahydro-6,11a-(epiminoethano)naphtho[2,1-f]indol-9(10H)-one] | > 20000 nM | 108 ± 9.39% | 2.28 µM | 106 ± 0.58% | 92.9 ± 6.03 nM | 102.7 ± 0.67% | 18800 ± 4870 nM | 52 ± 6.11% |  |
| O=C1C[C@@H]2C[C@@]3(O)[C@H]4Cc5ccc(O)cc5[C@@]3(CCN4CCCc3ccccc3)C[C@@H]2N1 [Compound 4, (6R,6aS,7aS,10aS,11aR)-2,6a-dihydroxy-14-(3-phenylpropyl)-5,6,6a,7,7a,8,10a,11-octahydro-6,11a-(epiminoethano)naphtho[2,1-f]indol-9(10H)-one] |  |  | 0.321 ± 0.0206 µM | 47.3 ± 7.26% |  |  |  |  |  |
| O=C1C[C@@H]2C[C@@]3(O)[C@H]4Cc5ccc(O)cc5[C@@]3(CCN4CC3CCOCC3)C[C@@H]2N1 [Compound 6, (6R,6aS,7aS,10aS,11aR)-2,6a-dihydroxy-14-((tetrahydro-2H-pyran-4-yl)methyl)-5,6,6a,7,7a,8,10a,11-octahydro-6,11a-(epiminoethano)naphtho[2,1-f]indol-9(10H)-one] |  |  | 1.47 µM | 7.33 ± 0.88% |  |  |  |  |  |
| O=C1C[C@@H]2C[C@@]3(O)[C@H]4Cc5ccc(O)cc5[C@@]3(CCN4CC[C@@]3(c4ccccn4)CCOC4(CCCC4)C3)C[C@@H]2N1 [Compound 7, (6R,6aS,7aS,10aS,11aR)-2,6a-dihydroxy-14-(2-((R)-9-(pyridin-2-yl)-6-oxaspiro-[4.5]decan-9-yl)ethyl)-5,6,6a,7,7a,8,10a,11-octahydro-6,11a-(epiminoethano)-naphtho[2,1-f]indol-9(10H)-one] |  |  |  | 4.5% |  |  |  |  | > 20 µM |
| COc1ccc2c(c1)[C@]13CCN(CC4CC4)[C@H](C2)[C@]1(O)CC1=CC(=O)NC1C3 (stereo partly drawn) [Compound 8, (6R,6aS,11aR)-14-(cyclopropylmethyl)-6a-hydroxy-2-methoxy-5,6,6a,7,10a,11-hexahydro-6,11a-(epiminoethano)naphtho[2,1-f]indol-9(10H)-one] | 585 ± 29.3 nM | 115 ± 3.53% | > 20 µM | -0.33 ± 0.67% | 846 ± 72.5 nM | 49 ± 1% | 1750 ± 197 nM | 66.7 ± 1.33% |  |
| CCN1C(=O)C[C@@H]2C[C@@]3(O)[C@H]4Cc5ccc(OC)cc5[C@@]3(CCN4CC3CC3)C[C@@H]21 [Compound 11, (6R,6aS,7aS,10aS,11aR)-14-(cyclopropylmethyl)-10-ethyl-6a-hydroxy-2-methoxy-5,6,6a,7,7a,8,10a,11-octahydro-6,11a-(epiminoethano)naphtho[2,1-f]indol-9(10H)-one] | 16.9 ± 1.96 nM | 107 ± 3.94% | 0.625 ± 0.0326 µM | 36.4 ± 2.23% | 204 ± 11.2 nM | 78 ± 3% |  |  |  |
| CN1C(=O)C[C@@H]2C[C@@]3(O)[C@H]4Cc5ccc(O)cc5[C@@]3(CCN4CC3CC3)C[C@@H]21 [Compound 12, (6R,6aS,7aS,10aS,11aR)-14-(cyclopropylmethyl)-2,6a-dihydroxy-10-methyl-5,6,6a,7,7a,8,10a,11-octahydro-6,11a-(epiminoethano)naphtho[2,1-f]indol-9(10H)-one] |  |  | 0.00218 ± 2.1e-05 µM | 29.3 ± 0.33% |  |  | 0.66 ± 0.014 nM | 106 ± 6.78% |  |
| COc1ccc2c(c1)[C@]13CCN(CC4CC4)[C@H](C2)[C@]1(O)C[C@H]1CC(=O)N(CC(C)C)[C@H]1C3 [Compound 13, (6R,6aS,7aS,10aS,11aR)-14-(cyclopropylmethyl)-6a-hydroxy-10-isobutyl-2-methoxy-5,6,6a,7,7a,8,10a,11-octahydro-6,11a-(epiminoethano)naphtho[2,1-f]indol-9(10H)-one] | 19.5 ± 1.37 nM | 106 ± 2.4% | 0.224 ± 0.0346 µM | 13.2 ± 1.39% | 82.2 ± 1.71 nM | 55 ± 2% |  |  |  |
| COc1ccc2c(c1)[C@]13CCN(CC4CC4)[C@H](C2)[C@]1(O)C[C@H]1CC(=O)N(CC2CC2)[C@H]1C3 [Compound 14, (6R,6aS,7aS,10aS,11aR)-10,14-bis(cyclopropylmethyl)-6a-hydroxy-2-methoxy-5,6,6a,7,7a,8,10a,11-octahydro-6,11a-(epiminoethano)naphtho[2,1-f]indol-9(10H)-one] | 16.6 ± 1.93 nM | 101.8 ± 0.63% | 0.146 ± 0.0211 µM | 13.2 ± 0.95% | 49.5 ± 3.87 nM | 43.7 ± 4.7% |  |  |  |
| COc1ccc2c(c1)[C@]13CCN(CC4CC4)[C@H](C2)[C@]1(O)C[C@H]1CC(=O)N(C)[C@H]1C3 [Compound 15, (6R,6aS,7aS,10aS,11aR)-14-(cyclopropylmethyl)-6a-hydroxy-2-methoxy-10-methyl-5,6,6a,7,7a,8,10a,11-octahydro-6,11a-(epiminoethano)naphtho[2,1-f]indol-9(10H)-one] | 113 ± 36.3 nM | 129 ± 5% | 0.863 ± 0.0697 µM | 23.6 ± 2.32% | 349 ± 26.3 nM | 75 ± 3% |  |  |  |
| O=C1C[C@@H]2C[C@@]3(O)[C@H]4Cc5ccc(O)cc5[C@@]3(CCN4CC3CC3)C[C@@H]2N1CC1CC1 [Compound 17, (6R,6aS,7aS,10aS,11aR)-10,14-bis(cyclopropylmethyl)-2,6a-dihydroxy-5,6,6a,7,7a,8,10a,11-octahydro-6,11a-(epiminoethano)-naphtho[2,1-f]indol-9(10H)-one] |  |  | > 20 µM | 1% |  |  |  |  |  |
| O=C1C=C2C[C@@]3(O)[C@H]4Cc5ccc(O)cc5[C@]3(C=C2N1CC1CC1)CCN4CC1CC1 [Compound 18, (6R,6aS,11aR)-10,14-bis(cyclopropylmethyl)-2,6a-dihydroxy-5,6,6a,7-tetrahydro-6,11a-(epiminoethano)naphtho[2,1-f]indol-9(10H)-one] |  |  | > 20 µM | 6% |  |  |  |  |  |
| COc1ccc2c(c1)[C@]13CCN(C)[C@H](C2)[C@]1(O)C[C@@H]1NC(=O)O[C@@H]1C3 [Compound 19, (6R,6aS,7aS,10aR,11aR)-6a-hydroxy-2-methoxy-14-methyl-5,6,6a,7,7a,8,10a,11-octahydro-9H-6,11a-(epiminoethano)phenanthro[2,3-d]oxazol-9-one] |  |  | > 20 µM | 2 ± 0.58% |  |  |  |  |  |
| CN1CC[C@]23C[C@@H]4OC(=O)N[C@H]4C[C@@]2(O)[C@H]1Cc1ccc(O)cc13 [Compound 20, (6R,6aS,7aS,10aS,11aR)-2,6a-dihydroxy-14-methyl-5,6,6a,7,7a,8,10a,11-octahydro-9H-6,11a-(epiminoethano)phenanthro[2,3-d]oxazol-9-one] |  |  | 1.31 µM | 12.4 ± 0.77% |  |  |  |  |  |
